Results published in the supplement of paper PMC10307832.

Compound: CC1=C(C=CC(=C1)[N+](=O)[O-])NS(=O)(=O)C2=C(C=CC(=C2)Cl)Cl [FH535] + NC(=O)Nc1cc(-c2cccc(F)c2)sc1C(=O)N[C@H]1CCCNC1 [AZD7762] (partner 0.2 µM)
Experiment: relative viability (nuclei count vs DMSO), 5 days (fraction); higher = more cells survive
Summary of the method: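 Lung cancer cell lines in 1536-well plates got either a single drug or a fixed anchor-drug dose together with five library-drug doses (not always all listed) in √10 steps, by pin tool, on the day after seeding. Nuclei were counted after 5 days, and relative viability is the treated-to-vehicle ratio of nuclei counts. Values are medians of duplicate plates.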

Row | Cell Line | relative viability (first compound 0.04 µM) | relative viability (first compound 0.1265 µM) | relative viability (first compound 0.4 µM) | relative viability (first compound 1.265 µM)
1 | 201T | 0.594 | 0.728 | 0.62 | 0.696
2 | A-427 | 0.768 | 0.795 | 0.768 | 0.622
3 | ABC-1 | 0.706 | 0.664 | 0.756 | 0.549
4 | BEN | 0.6 | 0.691 | 0.496 | 0.507
5 | CAL-12T | 0.594 | 0.643 | 0.536 | 0.397
6 | ChaGo-K-1 | 0.797 | 0.927 | 0.771 | 0.729
7 | EKVX | 0.77 | 0.661 | 0.631 | 0.559
8 | EMC-BAC-2 | 0.828 | 1.06 | 1.04 | 0.985
9 | EPLC-272H | 0.241 | 0.226 | 0.259 | 0.206
10 | H3255 | 0.806 | 0.918 | 0.853 | 0.788
11 | HARA | 0.19 | 0.426 | 0.305 | 0.358
12 | HCC-15 | 1.18 | 1.21 | 1.06 | 1.13
13 | HCC-44 | 1 | 0.961 | 0.898 | 0.866
14 | HCC-78 | 0.644 | 0.888 | 0.618 | 0.468
15 | HCC-366 | 0.244 | 0.289 | 0.307 | 0.247
16 | HCC-827 | 0.203 | 0.205 | 0.278 | 0.221
17 | HOP-62 | 0.473 | 0.66 | 0.416 | 0.55
18 | LC-2-ad | 0.809 | 0.828 | 0.744 | 0.697
19 | LCLC-97TM1 | 0.127 | 0.276 | 0.278 | 0.227
20 | LCLC-103H | 0.737 | 0.734 | 0.744 | 0.67

Row | Cell Line | relative viability (first compound 0.04 µM) | relative viability (first compound 0.1265 µM) | relative viability (first compound 0.4 µM) | relative viability (first compound 1.265 µM)
21 | LK-2 | 0.425 | 0.459 | 0.323 | 0.39
22 | LOU-NH91 | 0.767 | 0.779 | 0.608 | 0.428
23 | LU99A | 0.205 | 0.353 | 0.354 | 0.328
24 | LXF-289 | 1.05 | 1.1 | 1.03 | 0.873
25 | NCI-H23 | 0.22 | 0.391 | 0.275 | 0.307
26 | NCI-H322M | 0.522 | 0.549 | 0.515 | 0.633
27 | NCI-H358 | 0.495 | 0.571 | 0.529 | 0.252
28 | NCI-H441 | 1.09 | 1.32 | 1.09 | 1.02
29 | NCI-H460 | 0.616 | 0.615 | 0.603 | 0.337
30 | NCI-H522 | 0.717 | 0.947 | 0.688 | 0.864
31 | NCI-H596 | 1.04 | 1.18 | 0.933 | 1.05
32 | NCI-H647 | 0.557 | 0.519 | 0.322 | 0.418
33 | NCI-H650 | 0.877 | 1.03 | 1.18 | 0.67
34 | NCI-H727 | 0.409 | 0.59 | 0.595 | 0.59
35 | NCI-H838 | 0.893 | 1 | 0.902 | 0.891
36 | NCI-H1355 | 0.688 | 0.843 | 0.727 | 0.76
37 | NCI-H1395 | 0.381 | 0.426 | 0.368 | 0.393
38 | NCI-H1437 | 1.11 | 1.13 | 1.01 | 0.502
39 | NCI-H1651 | 0.368 | 0.511 | 0.502 | 0.466
40 | NCI-H1666 | 0.727 | 0.899 | 0.772 | 0.747

Row | Cell Line | relative viability (first compound 0.04 µM) | relative viability (first compound 0.1265 µM) | relative viability (first compound 0.4 µM) | relative viability (first compound 1.265 µM)
41 | NCI-H1703 | 0.127 | 0.136 | 0.109 | 0.132
42 | NCI-H1734 | 0.562 | 0.603 | 0.563 | 0.554
43 | NCI-H1755 | 0.418 | 0.439 | 0.475 | 0.444
44 | NCI-H1792 | 0.646 | 0.79 | 0.539 | 0.577
45 | NCI-H1793 | 0.43 | 0.631 | 0.418 | 0.483
46 | NCI-H1915 | 0.604 | 0.77 | 0.713 | 0.669
47 | NCI-H1944 | 0.316 | 0.527 | 0.588 | 0.48
48 | NCI-H1975 | 0.638 | 0.793 | 0.591 | 0.554
49 | NCI-H1993 | 0.927 | 0.704 | 0.626 | 0.532
50 | NCI-H2085 | 1.03 | 1.06 | 0.783 | 0.828
51 | NCI-H2087 | 1.24 | 1.21 | 1.17 | 0.78
52 | NCI-H2126 | 0.973 | 1.05 | 0.857 | 0.874
53 | NCI-H2170 | 0.897 | 1.06 | 0.809 | 0.815
54 | NCI-H2347 | 0.696 | 0.819 | 0.764 | 0.761
55 | NCI-H2405 | 0.665 | 0.794 | 0.641 | 0.5
56 | NCI-H3122 | 1.03 | 0.98 | 0.984 | 0.933
57 | PC-3 [JPC-3] | 0.773 | 0.83 | 0.656 | 0.508
58 | PC-14 | 0.357 | 0.416 | 0.245 | 0.349
59 | RERF-LC-KJ | 0.905 | 1.02 | 0.931 | 0.704
60 | SW 900 | 0.42 | 0.599 | 0.403 | 0.542
